Measured values reported in US20200024278A1, “COMPOSITION COMPRISING ANTIBIOTIC COMPOUND AND AN HETEROCYCLIC COMPOUND AND THEIR USE IN PREVENTING OR TREATING BACTERIAL INFECTIONS” (MUTABILIS, priority 2016, published 2020).

What was measured:
Assay in all cases: MIC, broth microdilution (CLSI), substance alone or ATB combined with compound at 4 or 8 μg/mL
Format in all cases: cell-based, A. baumannii
ABA UFR161 = tested on: ABA UFR161
Summary of the method: (§1)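 Per CLSI-M7-A7, MICs are determined in cation-adjusted Mueller-Hinton broth with a final inoculum of 5·10^5 CFU/mL. Plates incubate 16-20 h at 35° C in air and are read by eye. Fosfomycin assays carry 25 μg/ml glucose-6-phosphate.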

ABA UFR151 = tested on: ABA UFR151
Summary of the method: as §1

ABA UFR152 = tested on: ABA UFR152
Summary of the method: as §1

ABA UFR154 = tested on: ABA UFR154
Summary of the method: as §1

ABA UFR159 = tested on: ABA UFR159
Summary of the method: as §1

ABA UFR155 = tested on: ABA UFR155
Summary of the method: as §1

ABA UFR158 = tested on: ABA UFR158
Summary of the method: as §1

ABA 107292 = tested on: ABA 107292
Summary of the method: as §1

ABA UFR157 = tested on: ABA UFR157
Summary of the method: as §1

ABA UFR153 = tested on: ABA UFR153
Summary of the method: as §1

ABA UFR156 = tested on: ABA UFR156
Summary of the method: as §1

[1] = Acinetobacter baumannii, antibiotic alone, read-out: MIC ATB alone

CO/N=C(\C(=O)N[C@@H]1C(=O)N2C(C(=O)[O-])=C(C[N+]3(C)CCCC3)CS[C@H]12)c1csc(N)n1 [FEP, Cefepime]
MIC (ABA UFR161; [1]): > 128 µg/mL
MIC ATB combined with Example 1 @8 μg/ml (ABA UFR161; with Example 1 @8 μg/ml): >128 µg/mL
MIC ATB combined with Example 3 @8 μg/ml (ABA UFR161; with Example 3 @8 μg/ml): >128 µg/mL
MIC ATB combined with Example 6 @8 μg/ml (ABA UFR161; with Example 6 @8 μg/ml): >128 µg/mL
MIC ATB combined with Example 9 @4 μg/ml (ABA UFR161; with Example 9 @4 μg/ml): >128 µg/mL
MIC ATB combined with Example 10 @8 μg/ml (ABA UFR161; with Example 10 @8 μg/ml): >128 µg/mL
MIC ATB combined with Example 11 @8 μg/ml (ABA UFR161; with Example 11 @8 μg/ml): >128 µg/mL
MIC ATB combined with Example 12 @8 μg/ml (ABA UFR161; with Example 12 @8 μg/ml): >128 µg/mL
MIC ATB combined with Example 15 @4 μg/ml (ABA UFR161; with Example 15 @4 μg/ml): >128 µg/mL
MIC (ABA UFR151; [1]): 2 µg/mL
MIC ATB combined with Example 1 @8 μg/ml (ABA UFR151; with Example 1 @8 μg/ml): 2 µg/mL
MIC ATB combined with Example 3 @8 μg/ml (ABA UFR151; with Example 3 @8 μg/ml): 1 µg/mL
MIC ATB combined with Example 6 @8 μg/ml (ABA UFR151; with Example 6 @8 μg/ml): <0.25 µg/mL
MIC ATB combined with Example 9 @4 μg/ml (ABA UFR151; with Example 9 @4 μg/ml): 2 µg/mL
MIC ATB combined with Example 10 @8 μg/ml (ABA UFR151; with Example 10 @8 μg/ml): 2 µg/mL
MIC ATB combined with Example 11 @8 μg/ml (ABA UFR151; with Example 11 @8 μg/ml): 2 µg/mL
MIC ATB combined with Example 12 @8 μg/ml (ABA UFR151; with Example 12 @8 μg/ml): 2 µg/mL
MIC ATB combined with Example 15 @4 μg/ml (ABA UFR151; with Example 15 @4 μg/ml): 2 µg/mL
MIC (ABA UFR152; [1]): 16 µg/mL
MIC ATB combined with Example 1 @8 μg/ml (ABA UFR152; with Example 1 @8 μg/ml): 16 µg/mL
MIC ATB combined with Example 3 @8 μg/ml (ABA UFR152; with Example 3 @8 μg/ml): 8 µg/mL
MIC ATB combined with Example 6 @8 μg/ml (ABA UFR152; with Example 6 @8 μg/ml): 16 µg/mL
MIC ATB combined with Example 9 @4 μg/ml (ABA UFR152; with Example 9 @4 μg/ml): 16 µg/mL
MIC ATB combined with Example 10 @8 μg/ml (ABA UFR152; with Example 10 @8 μg/ml): 8 µg/mL
MIC ATB combined with Example 11 @8 μg/ml (ABA UFR152; with Example 11 @8 μg/ml): 16 µg/mL
MIC ATB combined with Example 12 @8 μg/ml (ABA UFR152; with Example 12 @8 μg/ml): 8 µg/mL
MIC ATB combined with Example 15 @4 μg/ml (ABA UFR152; with Example 15 @4 μg/ml): 16 µg/mL
MIC (ABA UFR154; [1]): 2 µg/mL
MIC ATB combined with Example 1 @8 μg/ml (ABA UFR154; with Example 1 @8 μg/ml): 2 µg/mL
MIC ATB combined with Example 3 @8 μg/ml (ABA UFR154; with Example 3 @8 μg/ml): 1 µg/mL
MIC ATB combined with Example 6 @8 μg/ml (ABA UFR154; with Example 6 @8 μg/ml): 1 µg/mL
MIC ATB combined with Example 9 @4 μg/ml (ABA UFR154; with Example 9 @4 μg/ml): 1 µg/mL
MIC ATB combined with Example 10 @8 μg/ml (ABA UFR154; with Example 10 @8 μg/ml): 0.5 µg/mL
MIC ATB combined with Example 11 @8 μg/ml (ABA UFR154; with Example 11 @8 μg/ml): 1 µg/mL
MIC ATB combined with Example 12 @8 μg/ml (ABA UFR154; with Example 12 @8 μg/ml): 1 µg/mL
MIC ATB combined with Example 15 @4 μg/ml (ABA UFR154; with Example 15 @4 μg/ml): 2 µg/mL
MIC (ABA UFR159; [1]): > 128 µg/mL
MIC ATB combined with Example 1 @8 μg/ml (ABA UFR159; with Example 1 @8 μg/ml): >128 µg/mL
MIC ATB combined with Example 3 @8 μg/ml (ABA UFR159; with Example 3 @8 μg/ml): >128 µg/mL
MIC ATB combined with Example 6 @8 μg/ml (ABA UFR159; with Example 6 @8 μg/ml): >128 µg/mL
MIC ATB combined with Example 9 @4 μg/ml (ABA UFR159; with Example 9 @4 μg/ml): >128 µg/mL
MIC ATB combined with Example 10 @8 μg/ml (ABA UFR159; with Example 10 @8 μg/ml): >128 µg/mL
MIC ATB combined with Example 11 @8 μg/ml (ABA UFR159; with Example 11 @8 μg/ml): >128 µg/mL
MIC ATB combined with Example 12 @8 μg/ml (ABA UFR159; with Example 12 @8 μg/ml): >128 µg/mL
MIC ATB combined with Example 15 @4 μg/ml (ABA UFR159; with Example 15 @4 μg/ml): >128 µg/mL
MIC (ABA UFR155; [1]): 128 µg/mL
MIC ATB combined with Example 1 @8 μg/ml (ABA UFR155; with Example 1 @8 μg/ml): 64 µg/mL
MIC ATB combined with Example 3 @8 μg/ml (ABA UFR155; with Example 3 @8 μg/ml): 32 µg/mL
MIC ATB combined with Example 6 @8 μg/ml (ABA UFR155; with Example 6 @8 μg/ml): 16 µg/mL
MIC ATB combined with Example 9 @4 μg/ml (ABA UFR155; with Example 9 @4 μg/ml): 32 µg/mL
MIC ATB combined with Example 10 @8 μg/ml (ABA UFR155; with Example 10 @8 μg/ml): 64 µg/mL
MIC ATB combined with Example 11 @8 μg/ml (ABA UFR155; with Example 11 @8 μg/ml): 64 µg/mL
MIC ATB combined with Example 12 @8 μg/ml (ABA UFR155; with Example 12 @8 μg/ml): 64 µg/mL
MIC ATB combined with Example 15 @4 μg/ml (ABA UFR155; with Example 15 @4 μg/ml): 32 µg/mL
MIC (ABA UFR158; [1]): > 128 µg/mL
MIC ATB combined with Example 1 @8 μg/ml (ABA UFR158; with Example 1 @8 μg/ml): >128 µg/mL
MIC ATB combined with Example 3 @8 μg/ml (ABA UFR158; with Example 3 @8 μg/ml): >128 µg/mL
MIC ATB combined with Example 6 @8 μg/ml (ABA UFR158; with Example 6 @8 μg/ml): <0.25 µg/mL
MIC ATB combined with Example 9 @4 μg/ml (ABA UFR158; with Example 9 @4 μg/ml): >128 µg/mL
MIC ATB combined with Example 10 @8 μg/ml (ABA UFR158; with Example 10 @8 μg/ml): >128 µg/mL
MIC ATB combined with Example 11 @8 μg/ml (ABA UFR158; with Example 11 @8 μg/ml): >128 µg/mL
MIC ATB combined with Example 12 @8 μg/ml (ABA UFR158; with Example 12 @8 μg/ml): >128 µg/mL
MIC ATB combined with Example 15 @4 μg/ml (ABA UFR158; with Example 15 @4 μg/ml): >128 µg/mL
MIC (ABA 107292; [1]): 64 µg/mL
MIC ATB combined with Example 1 @8 μg/ml (ABA 107292; with Example 1 @8 μg/ml): 64 µg/mL
MIC ATB combined with Example 3 @8 μg/ml (ABA 107292; with Example 3 @8 μg/ml): 8 µg/mL
MIC ATB combined with Example 6 @8 μg/ml (ABA 107292; with Example 6 @8 μg/ml): 16 µg/mL
MIC ATB combined with Example 9 @4 μg/ml (ABA 107292; with Example 9 @4 μg/ml): 16 µg/mL
MIC ATB combined with Example 10 @8 μg/ml (ABA 107292; with Example 10 @8 μg/ml): 16 µg/mL
MIC ATB combined with Example 11 @8 μg/ml (ABA 107292; with Example 11 @8 μg/ml): 32 µg/mL
MIC ATB combined with Example 12 @8 μg/ml (ABA 107292; with Example 12 @8 μg/ml): 8 µg/mL
MIC ATB combined with Example 15 @4 μg/ml (ABA 107292; with Example 15 @4 μg/ml): 32 µg/mL
MIC (ABA UFR157; [1]): 32 µg/mL
MIC ATB combined with Example 1 @8 μg/ml (ABA UFR157; with Example 1 @8 μg/ml): 8 µg/mL
MIC ATB combined with Example 3 @8 μg/ml (ABA UFR157; with Example 3 @8 μg/ml): 4 µg/mL
MIC ATB combined with Example 6 @8 μg/ml (ABA UFR157; with Example 6 @8 μg/ml): <0.25 µg/mL
MIC ATB combined with Example 9 @4 μg/ml (ABA UFR157; with Example 9 @4 μg/ml): 8 µg/mL
MIC ATB combined with Example 10 @8 μg/ml (ABA UFR157; with Example 10 @8 μg/ml): 8 µg/mL
MIC ATB combined with Example 11 @8 μg/ml (ABA UFR157; with Example 11 @8 μg/ml): 8 µg/mL
MIC ATB combined with Example 12 @8 μg/ml (ABA UFR157; with Example 12 @8 μg/ml): 4 µg/mL
MIC ATB combined with Example 15 @4 μg/ml (ABA UFR157; with Example 15 @4 μg/ml): 8 µg/mL
MIC (ABA UFR153; [1]): > 128 µg/mL
MIC ATB combined with Example 1 @8 μg/ml (ABA UFR153; with Example 1 @8 μg/ml): 16 µg/mL
MIC ATB combined with Example 3 @8 μg/ml (ABA UFR153; with Example 3 @8 μg/ml): 8 µg/mL
MIC ATB combined with Example 6 @8 μg/ml (ABA UFR153; with Example 6 @8 μg/ml): <=0.25 μg/mL
MIC ATB combined with Example 9 @4 μg/ml (ABA UFR153; with Example 9 @4 μg/ml): 16 µg/mL
MIC ATB combined with Example 10 @8 μg/ml (ABA UFR153; with Example 10 @8 μg/ml): 8 µg/mL
MIC ATB combined with Example 11 @8 μg/ml (ABA UFR153; with Example 11 @8 μg/ml): 16 µg/mL
MIC ATB combined with Example 12 @8 μg/ml (ABA UFR153; with Example 12 @8 μg/ml): 8 µg/mL
MIC ATB combined with Example 15 @4 μg/ml (ABA UFR153; with Example 15 @4 μg/ml): 16 µg/mL
MIC (ABA UFR156; [1]): > 128 µg/mL
MIC ATB combined with Example 1 @8 μg/ml (ABA UFR156; with Example 1 @8 μg/ml): 32 µg/mL
MIC ATB combined with Example 3 @8 μg/ml (ABA UFR156; with Example 3 @8 μg/ml): 8 µg/mL
MIC ATB combined with Example 6 @8 μg/ml (ABA UFR156; with Example 6 @8 μg/ml): 8 µg/mL
MIC ATB combined with Example 9 @4 μg/ml (ABA UFR156; with Example 9 @4 μg/ml): 32 µg/mL
MIC ATB combined with Example 10 @8 μg/ml (ABA UFR156; with Example 10 @8 μg/ml): 8 µg/mL
MIC ATB combined with Example 11 @8 μg/ml (ABA UFR156; with Example 11 @8 μg/ml): 32 µg/mL
MIC ATB combined with Example 12 @8 μg/ml (ABA UFR156; with Example 12 @8 μg/ml): 32 µg/mL
MIC ATB combined with Example 15 @4 μg/ml (ABA UFR156; with Example 15 @4 μg/ml): 32 µg/mL
